Here are results for 69 molecules from patent US8815875B2 (Merck Sharp & Dohme Corp., priority 2008, dated 2014).

SMILES strings stand for the structures.

For this assay, the target named is FABP4 (Homo sapiens, UniProt P15090). Put plainly: TdF (Temperature Dependence Fluorescence) assay, thermal shift, FABP4. In kind it is binding. An excerpt:
TdF (Temperature Dependence Fluorescence) Assay for FABP3 and FABP4
The TdF assay was mainly conducted in the 96-well based CHROMO-4 real time fluorescence plate reader (BioRad). The Sypro Orange (Sigma-Aldrich), environmentally sensitive fluorescence dye, was used to monitor the protein folding-unfolding transition. Protein-ligand binding was gauged by the change (or shift) in the unfolding transition temperature (ΔTm) acquired at protein alone with respect to protein in the presence of ligand of interest.
The compound of interest was first prepared in DMSO stock (typical concentration: 10 mM). […] Final percentage of DMSO resided in the sample was 2%. The sample plate was heated from 30° C. to 90° C. with thermal ramping rate of 1° C./min. The fluorescence signals were acquired with excitation and emission wavelengths centered at 490 and 560 nm respectively. The instrument thermal stability was ±0.2° C.
Theoretical basis for TdF-based ligand binding affinity constant
In brief, the binding constant of the ligand at the Tm is expressed as below:
[formula] where To is the midpoint of unfolding for unliganded protein and Tm is the midpoint of unfolding in presence of ligand. [LTm] is free ligand at Tm. The ΔHu and ΔCpu are the enthalpy of unfolding and heat capacity change of unfolding for the protein respectively.
The nonlinear regression fitting in general readily reaches convergence by properly constraining the initial values for the fitting parameters (e.g. the initial “guess” for the ΔHu was constrained to 120 kcal/mol; initial Yn and mn were set to 1 and zero to best represent the melting curve along the low temperature region; negative slope of −0.5 was initially chosen for mu; initial Tm was also constrained to 50° C.).
[formula] (see Brandts et al and Mayhood et al, shown above) where ΔHL (T) is the van't Hoff enthalpy of ligand binding at temperature T and ΔCpL is the heat capacity upon ligand binding. For simplicity, the ΔCpL and ΔHL (T) were set to zero and −7 kcal/mol respectively. […] TdCD (Temperature-dependent Circular Dichroism) Assay for FABP3/4/5

FABP4, sequence (P15090 whole entry, species assumed): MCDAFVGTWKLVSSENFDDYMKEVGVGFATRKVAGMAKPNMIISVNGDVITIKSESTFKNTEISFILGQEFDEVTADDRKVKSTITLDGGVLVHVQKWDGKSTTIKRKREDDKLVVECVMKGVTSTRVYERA

As usually defined, the Kd is the concentration at which binding is half-saturated. For the molecule `O=c1cc(COc2cccc3cnccc23)[nH]c2nc(-c3ccccc3)nn12` [1-75], the dissociation constant (Kd) was > 500 nM.
Regarding `O=c1cc(COC2CCOCC2)[nH]c2nc(-c3ccccc3)nn12` [1-76], the equilibrium dissociation constant (Kd) is > 500 nM.
In the case of `O=c1cc(CN2CC[S+]([O-])CC2)[nH]c2nc(-c3ccccc3)nn12` [1-77], the dissociation constant Kd was > 500 nM.
Consider `O=c1cc(CN2CCC(Cc3ccc(Cl)cc3)CC2)[nH]c2nc(-c3ccccc3)nn12` [1-78], for which the dissociation constant (Kd) is > 500 nM.
With `O=c1cc(COC2CCSCC2)[nH]c2nc(-c3ccccc3)nn12` [1-79], the dissociation constant Kd was > 500 nM.
On to `O=c1cc(COc2cccc3ncccc23)[nH]c2nc(-c3ccccc3)nn12` [1-80], for which the “FABP4 TdF Kd” value is reported as “B (0.5 ≦ B < 0.001 μM)”.
For the molecule `O=c1cc(CN2CCOc3c(Br)cccc32)[nH]c2nc(-c3ccccc3)nn12` [1-81], the “FABP4 TdF Kd” value was “B (0.5 ≦ B < 0.001 μM)”.
As for `O=c1cc(CN2CCc3ccc(Br)cc32)[nH]c2nc(-c3ccccc3)nn12` [1-82], the “FABP4 TdF Kd” value is given as “B (0.5 ≦ B < 0.001 μM)”.
On the same count and under the same terms, the result for `O=c1cc(CN2CCc3ccc(Cl)cc32)[nH]c2nc(-c3ccccc3)nn12` [1-83] reads “B (0.5 ≦ B < 0.001 μM)”; that for `Cc1c(Br)cccc1OCc1cc(=O)n2nc(-c3ccccc3)nc2[nH]1` [1-84], “B (0.5 ≦ B < 0.001 μM)”.
As for `Cc1c(OCc2cc(=O)n3nc(-c4ccccc4)nc3[nH]2)cccc1C(F)(F)F` [1-85], the “FABP4 TdF Kd” value is reported as “B (0.5 ≦ B < 0.001 μM)”.
As for `O=c1cc(COc2cc(Cl)cc(Cl)c2)[nH]c2nc(-c3ccccc3)nn12` [1-86], the “FABP4 TdF Kd” value was “B (0.5 ≦ B < 0.001 μM)”.
For `O=c1cc(COc2cc(Cl)cc(Cl)c2Cl)[nH]c2nc(-c3ccccc3)nn12` [1-87], the “FABP4 TdF Kd” value is on record as “B (0.5 ≦ B < 0.001 μM)”.
For `O=c1cc(COc2cccc(Cl)c2)[nH]c2nc(-c3ccccc3)nn12` [1-88], the “FABP4 TdF Kd” value is “B (0.5 ≦ B < 0.001 μM)”.
As for `O=c1cc(CN2CCC(Cc3cccc(F)c3)C2)[nH]c2nc(-c3ccccc3)nn12` (stereo not drawn) [1-89], the Kd is > 500 nM.
Same read-out and setting: to `Cn1ccc(NCc2cc(=O)n3nc(-c4ccccc4)nc3[nH]2)n1` [1-90] belongs > 500 nM; to `O=c1cc(CN2CCC(c3cccc(Cl)c3)C2)[nH]c2nc(-c3ccccc3)nn12` (stereo not drawn) [1-91], > 500 nM.
Regarding `O=c1cc(CN2CCC(Cc3ccccc3F)C2)[nH]c2nc(-c3ccccc3)nn12` (stereo not drawn) [1-92], the Kd is > 500 nM.
For `O=c1cc(COc2cccc(F)c2)[nH]c2nc(-c3ccccc3)nn12` [1-93], the “FABP4 TdF Kd” value was “B (0.5 ≦ B < 0.001 μM)”.
The same measure, in the same setting: to `O=c1cc(COc2ccc(Cl)c(F)c2)[nH]c2nc(-c3ccccc3)nn12` [1-94] belongs “B (0.5 ≦ B < 0.001 μM)”.
In the case of `CC1(C)CCC(=O)N(Cc2cc(=O)n3nc(-c4ccccc4)nc3[nH]2)C1` [1-95], the dissociation constant Kd was > 500 nM.
Same read-out and setting: the result for `CCC1(OCc2cc(=O)n3nc(-c4ccccc4)nc3[nH]2)CCCCC1` [1-96] reads > 500 nM.
For the molecule `CC1(C)CC(OCc2cc(=O)n3nc(-c4ccccc4)nc3[nH]2)CC(C)(C)C1` [1-97], the “FABP4 TdF Kd” value was “B (0.5 ≦ B < 0.001 μM)”.
For `CN1CCc2c(cccc2OCc2cc(=O)n3nc(-c4ccccc4)nc3[nH]2)C1` [1-98], the Kd was > 500 nM.
In the case of `CC1CC(OCc2cc(=O)n3nc(-c4ccccc4)nc3[nH]2)CC(C)(C)C1` (stereo not drawn) [1-99], the “FABP4 TdF Kd” value is “B (0.5 ≦ B < 0.001 μM)”.
For `O=c1cc(CN2CCn3c(nnc3C3CC3)C2)[nH]c2nc(-c3ccccc3)nn12` [1-101], the equilibrium dissociation constant (Kd) is > 500 nM.
`CC1(C)CCCC(C)(C)C1OCc1cc(=O)n2nc(-c3ccccc3)nc2[nH]1` [1-102]: the Kd was > 500 nM.
On the same count and under the same terms, to `O=c1cc(CN2CCCC2Cc2ccncn2)[nH]c2nc(-c3ccccc3)nn12` (stereo not drawn) [1-103] belongs > 500 nM; to `Cc1cnc2cccc(NCc3cc(=O)n4nc(-c5ccccc5)nc4[nH]3)n12` [1-104], > 500 nM.
`Cn1cc2cccc(NCc3cc(=O)n4nc(-c5ccccc5)nc4[nH]3)c2n1` [1-105]: the dissociation constant Kd is > 500 nM.
Turning to `Cn1ncc2cccc(NCc3cc(=O)n4nc(-c5ccccc5)nc4[nH]3)c21` [1-106], the Kd is > 500 nM.
Regarding `O=c1cc(CO[C@@H]2C[C@H]3CC[C@@H]2C3)[nH]c2nc(-c3ccccc3)nn12` [1-107], the “FABP4 TdF Kd” value was “B (0.5 ≦ B < 0.001 μM)”.
The same measure, in the same setting: the result for `O=c1cc(CO[C@H]2C[C@H]3CC[C@@H]2C3)[nH]c2nc(-c3ccccc3)nn12` [1-108] reads “B (0.5 ≦ B < 0.001 μM)”.
Regarding `O=c1cc(CN2CCn3c(Br)nnc3C2)[nH]c2nc(-c3ccccc3)nn12` [1-109], the dissociation constant Kd is > 500 nM.
For the molecule `C[C@@H]1C[C@@H](OCc2cc(=O)n3nc(-c4ccccc4)nc3[nH]2)CC(C)(C)C1` [1-110], the “FABP4 TdF Kd” value is reported as “B (0.5 ≦ B < 0.001 μM)”.
`C[C@@H]1C[C@H](OCc2cc(=O)n3nc(-c4ccccc4)nc3[nH]2)CC(C)(C)C1` [1-111]: the “FABP4 TdF Kd” value is given as “B (0.5 ≦ B < 0.001 μM)”.
Take `O=c1cc(CN2CCCC2Cc2cccnc2)[nH]c2nc(-c3ccccc3)nn12` (stereo not drawn) [1-112]: the Kd was > 500 nM.
Regarding `Cc1ccsc1-c1nc2[nH]c(COc3cccc(Cl)c3C)cc(=O)n2n1` [1-113], the Kd was > 500 nM.
For the molecule `Cc1ccoc1-c1nc2[nH]c(COc3cccc(Cl)c3C)cc(=O)n2n1` [1-115], the Kd is > 500 nM.
Consider `O=c1cc(COc2ccccc2Cl)[nH]c2nc(-c3ccccc3)nn12` [1-118], for which the “FABP4 TdF Kd” value is listed as “B (0.5 ≦ B < 0.001 μM)”.
With `O=c1cc(CN2CCCC2Cc2c(F)cccc2Cl)[nH]c2nc(-c3ccccc3)nn12` (stereo not drawn) [1-131], the “FABP4 TdF Kd” value is “B (0.5 ≦ B < 0.001 μM)”.
In the case of `O=c1cc(COc2cccc(Cl)c2[N+](=O)[O-])[nH]c2nc(-c3ccccc3)nn12` [1-134], the “FABP4 TdF Kd” value was “B (0.5 ≦ B < 0.001 μM)”.
In the case of `O=c1cc(COC2CCCCC2O)[nH]c2nc(-c3ccccc3)nn12` (stereo not drawn) [1-135], the Kd was > 500 nM.
As for `Nc1c(Cl)cccc1OCc1cc(=O)n2nc(-c3ccccc3)nc2[nH]1` [1-136], the “FABP4 TdF Kd” value is “B (0.5 ≦ B < 0.001 μM)”.
Take `O=c1cc(CN2CCCC2Cc2ccccn2)[nH]c2nc(-c3ccccc3)nn12` (stereo not drawn) [1-139]: the Kd is > 500 nM.
For `Cc1ccc(F)c2ccn(Cc3cc(=O)n4nc(-c5ccccc5)nc4[nH]3)c12` [1-141], the dissociation constant (Kd) is > 500 nM.
Regarding `Cc1cn(Cc2cc(=O)n3nc(-c4ccccc4)nc3[nH]2)c2cccc(Cl)c12` [1-142], the “FABP4 TdF Kd” value is “B (0.5 ≦ B < 0.001 μM)”.
Consider `CCCCc1cn(Cc2cc(=O)n3nc(-c4ccccc4)nc3[nH]2)c2cccc(Cl)c12` [1-143], for which the “FABP4 TdF Kd” value is recorded as “B (0.5 ≦ B < 0.001 μM)”.
`Cn1cc(Br)c(NCc2cc(=O)n3nc(-c4ccccc4)nc3[nH]2)n1` [1-146]: the Kd is > 500 nM.
For the molecule `CC1(C)CCC(OCc2cc(=O)n3nc(-c4ccccc4)nc3[nH]2)CC1` [1-147], the “FABP4 TdF Kd” value is given as “B (0.5 ≦ B < 0.001 μM)”.
Regarding `O=c1cc(COc2cccnc2Br)[nH]c2nc(-c3ccccc3)nn12` [1-148], the Kd is > 500 nM.
Regarding `Cc1cccc2c1OCCN2Cc1cc(=O)n2nc(-c3ccccc3)nc2[nH]1` [1-149], the “FABP4 TdF Kd” value is given as “B (0.5 ≦ B < 0.001 μM)”.
Regarding `CC1(OCc2cc(=O)n3nc(-c4ccccc4)nc3[nH]2)CCCCC1` [1-150], the “FABP4 TdF Kd” value is “B (0.5 ≦ B < 0.001 μM)”.
With `Cn1nc(C2CC2)cc1NCc1cc(=O)n2nc(-c3ccccc3)nc2[nH]1` [1-151], the Kd was > 500 nM.
Take `COC(=O)C1(NCc2cc(=O)n3nc(-c4ccccc4)nc3[nH]2)CCc2ccc(Br)cc2C1` (stereo not drawn) [1-155]: the dissociation constant Kd is > 500 nM.
Regarding `Cc1c(Cl)cccc1OCc1[nH]c2nc(-c3ccccc3)nn2c(=O)c1Br` [2-1], the “FABP4 TdF Kd” value is listed as “B (0.5 ≦ B < 0.001 μM)”.
On to `CCc1ccc(OCc2[nH]c3nc(-c4ccccc4)nn3c(=O)c2Br)cc1` [2-2], for which the Kd was > 500 nM.
On to `Cc1c(Cl)cccc1OCc1[nH]c2nc(-c3ccccc3)nn2c(=O)c1Cl` [3-1], for which the “FABP4 TdF Kd” value is “B (0.5 ≦ B < 0.001 μM)”.
For the molecule `Cc1c(Cl)cccc1NCc1cc(=O)n2ncnc2[nH]1` [4-2], the dissociation constant Kd is > 500 nM.
With `CCc1ccc(NCc2cc(=O)n3ncnc3[nH]2)cc1` [4-3], the equilibrium dissociation constant (Kd) was > 500 nM.
On to `CCc1ccc(NCc2cc(=O)n3nc(C(F)(F)F)nc3[nH]2)cc1` [5-2], for which the dissociation constant (Kd) is > 500 nM.
On the same count and under the same terms, to `O=c1cc(COc2cccc(C(F)(F)F)c2)[nH]c2nc(C(F)(F)F)nn12` [5-3] belongs > 500 nM.
As for `Cc1ccc(OCc2cc(=O)n3nc(C(F)(F)F)nc3[nH]2)cc1C` [5-4], the equilibrium dissociation constant (Kd) is > 500 nM.
As for `O=c1cc(CNc2ccc(F)c(F)c2)[nH]c2nc(C(F)(F)F)nn12` [5-5], the equilibrium dissociation constant (Kd) was > 500 nM.
On the same count and under the same terms, to `COc1ccc(Cl)cc1NCc1cc(=O)n2nc(C(F)(F)F)nc2[nH]1` [5-6] belongs > 500 nM; to `CCc1ccc(NCc2cc(=O)n3nc(C)nc3[nH]2)cc1` [5-7], > 500 nM.
`CCc1ccc(NCc2cc(=O)n3nc(CC)nc3[nH]2)cc1` [5-8]: the Kd is > 500 nM.
On to `CCc1ccc(NCc2cc(=O)n3nc(C4CC4)nc3[nH]2)cc1` [5-9], for which the dissociation constant (Kd) is > 500 nM.
In the case of `CC(C)c1ccc(NCc2cc(=O)n3nc(-c4ccccc4)nc3[nH]2)cc1` [6-1], the equilibrium dissociation constant (Kd) is > 500 nM.
